In patent US8598085B2, “2-(2-fluoro-substituted phenyl)-6-amino-5-chloro-4-pyrimidinecarboxylates and their use as herbicides” (Dow AgroSciences LLC, priority 2007, dated 2013):

Columns and labels:
[1] = tested on: ABUTH—Velvetleaf (Abutilon theophrasti); assay: General postemergence herbicidal activity, velvetleaf; assay type: in vivo; conditions: post-emergence, 336 h, post-emergent, rate 140 g ai/ha, visual score after 14 days (0 no injury, 100 complete kill), read-out: % Growth Reduction ABUTH
Description: (§1) Seeds or nutlets of the desired test plant species were planted in Sun Gro MetroMix® 306 planting mixture, which typically has a pH of 6.0 to 6.8 and an organic matter content of about 30 percent, in plastic pots with a surface area of 64 square centimeters. When required to ensure good germination and healthy plants, a fungicide treatment and/or other chemical or physical treatment was applied. The plants were grown for 7-21 days in a greenhouse with an approximate 15 hour photoperiod which was maintained at about 23-29° C. during the day and 22-28° C. during the night. Nutrients and water were added on a regular basis and supplemental lighting was provided with overhead metal halide 1000-Watt lamps as necessary. The plants were employed for testing when they reached the first or second true leaf stage.
(§2) A weighed amount, determined by the highest rate to be tested, of each test compound was placed in a 25 mL glass vial and was dissolved in 4 mL of a 97:3 v/v (volume/volume) mixture of acetone and dimethyl sulfoxide (DMSO) to obtain concentrated stock solutions. […] The concentrated stock solutions obtained were diluted with 20 mL of an aqueous mixture containing acetone, water, isopropyl alcohol, DMSO, Atplus 411F crop oil concentrate, and Triton X-155 surfactant in a 48.5:39:10:1.5:1.0:0.02 v/v ratio to obtain spray solutions containing the highest application rates. Additional application rates were obtained by serial dilution of 12 mL of the high rate solution into a solution containing 2 mL of 97:3 v/v (volume/volume) mixture of acetone and DMSO and 10 mL of an aqueous mixture containing acetone, water, isopropyl alcohol, DMSO, Atplus 411F crop oil concentrate, and Triton X-155 surfactant in a 48.5:39:10:1.5:1.0:0.02 v/v ratio to obtain ½X, ¼X, ⅛X and 1/16X rates of the high rate. Compound requirements are based upon a 12 mL application volume at a rate of 187 L/ha. Formulated compounds were applied to the plant material with an overhead Mandel track sprayer equipped with 8002E nozzles calibrated to deliver 187 L/ha over an application area of 0.503 square meters at a spray height of 18 inches […] above the average plant canopy height. Control plants were sprayed in the same manner with the solvent blank.
(§3) The treated plants and control plants were placed in a greenhouse as described above and watered by sub-irrigation to prevent wash-off of the test compounds. After 14 days, the condition of the test plants as compared with that of the untreated plants was determined visually and scored on a scale of 0 to 100 percent where 0 corresponds to no injury and 100 corresponds to complete kill.

[2] = tested on: SORVU—Common sorghum (Sorghum vulgare); assay: General preemergence herbicidal activity, common sorghum; assay type: in vivo; conditions: pre-emergent, rate 140 g ai/ha, visual score after 20-22 days (0 no injury, 100 complete kill or no emergence), read-out: % Growth Inhibition SORVU
From the text: (§4) Seeds of the desired test plant species were planted in a soil matrix prepared by mixing a loam soil (43 percent silt, 19 percent clay, and 38 percent sand, with a pH of about 8.1 and an organic matter content of about 1.5 percent) and sand in a 70 to 30 ratio. The soil matrix was contained in plastic pots with a surface area of 113 square centimeters. When required to ensure good germination and healthy plants, a fungicide treatment and/or other chemical or physical treatment was applied. A weighed amount, determined by the highest rate to be tested, of each test compound was placed in a 25 mL glass vial and was dissolved in 6 mL of a 97:3 v/v (volume/volume) mixture of acetone and DMSO to obtain concentrated stock solutions. […] The stock solutions obtained were diluted with 18 mL of a 0.1% v/v aqueous solution of Tween® 20 surfactant to obtain spray solutions containing the highest application rate. Additional application rates were obtained by serial dilution of 12 mL of the high rate solution into a solution containing 3 mL of 97:3 v/v mixture of acetone and DMSO and 9 mL of the 0.1% v/v aqueous solution of Tween® 20 surfactant to obtain 1⁄2X, 1⁄4X, 1⁄8X and 1/16X rates of the high rate. Compound requirements are based upon a 12 mL application volume at a rate of 187 L/ha. Formulated compounds were applied to the plant material with an overhead Mandel track sprayer equipped with […] nozzles calibrated to deliver 187 L/ha over an application area of 0.503 square meters at a spray height of 18 inches (43 cm) above the soil surface. Control plants were sprayed in the same manner with the solvent blank. The treated pots and control pots were placed in a greenhouse maintained with an approximate 15 hour photoperiod and temperatures of about 23-29° C. during the day and 22-28° C. during the night. Nutrients and water were added on a regular basis and supplemental lighting was provided with overhead metal halide 1000-Watt lamps as necessary. The water was added by top-irrigation. After 20-22 days, the condition of the test plants that germinated and grew as compared with that of the untreated plants that emerged and grew was determined visually and scored on a scale of 0 to 100 percent where 0 corresponds to no injury and 100 corresponds to complete kill or no emergence.

[3] = tested on: POLCO—Wild buckwheat (Polygonum convolvulus); assay: General postemergence herbicidal activity, wild buckwheat; assay type: in vivo; conditions: Fallopia convolvulus, post-emergence, 336 h; post-emergent, rate 140 g ai/ha, visual score after 14 days (0 no injury, 100 complete kill); read-out: % Growth Reduction POLCO
Description: as §1, §2, §3

[4] = tested on: HELAN—Common sunflower (Helianthus annuus); assay: General preemergence herbicidal activity, common sunflower; assay type: in vivo; conditions: pre-emergent, rate 140 g ai/ha, visual score after 20-22 days (0 no injury, 100 complete kill or no emergence), read-out: % Growth Inhibition HELAN
From the text: as §4

[5] = tested on: CIRAR—Canada thistle (Cirsium arvense); assay: General postemergence herbicidal activity, Canada thistle; assay type: in vivo; conditions: post-emergence, 336 h, post-emergent, rate 140 g ai/ha, visual score after 14 days (0 no injury, 100 complete kill), read-out: % Growth Reduction CIRAR
Description: as §1, §2, §3

[6] = tested on: CHEAL—Common lambsquarters (Chenopodium album); assay: General preemergence herbicidal activity, common lambsquarters; assay type: in vivo; conditions: pre-emergent, rate 140 g ai/ha, visual score after 20-22 days (0 no injury, 100 complete kill or no emergence), read-out: % Growth Inhibition CHEAL
From the text: as §4

ZEAMX—Corn (Zea mays) = assay: General preemergence herbicidal activity, corn; assay type: in vivo; conditions: pre-emergent, rate 140 g ai/ha, visual score after 20-22 days (0 no injury, 100 complete kill or no emergence), read-out: % Growth Inhibition ZEAMX
From the text: as §4

[7] = tested on: ABUTH—Velvetleaf (Abutilon theophrasti); assay: General preemergence herbicidal activity, velvetleaf; assay type: in vivo; conditions: pre-emergent, rate 140 g ai/ha, visual score after 20-22 days (0 no injury, 100 complete kill or no emergence), read-out: % Growth Inhibition ABUTH
From the text: as §4

[8] = tested on: ECHCG—Barnyardgrass (Echinochloa crus-galli); assay: General postemergence herbicidal activity, barnyardgrass; assay type: in vivo; conditions: post-emergence, 336 h, post-emergent, rate 140 g ai/ha, visual score after 14 days (0 no injury, 100 complete kill), read-out: % Growth Reduction ECHCG
Description: as §1, §2, §3

Compound	pest or weed control at 140 g/ha [1]	inhibition at 140 g/ha [2]	pest or weed control at 140 g/ha [3]	inhibition at 140 g/ha [4]	pest or weed control at 140 g/ha [5]	inhibition at 140 g/ha [6]	melting point	inhibition at 140 g/ha (ZEAMX—Corn (Zea mays))	inhibition at 140 g/ha [7]	pest or weed control at 140 g/ha [8]
Nc1nc(-c2ccc(Cl)cc2F)nc(C(=O)O)c1Cl [Compound 11, 6-Amino-5-chloro-2-(4-chloro-2-fluorophenyl)pyrimidine-4-carboxylic acid]	99%	95%	100%	95%	100%	100%	194 to 196 °C	0%	90%	85%
Nc1nc(-c2ccc(Cl)c(F)c2F)nc(C(=O)O)c1Cl [Compound 12, 6-Amino-5-chloro-2-(4-chloro-2,3-difluorophenyl)pyrimidine-4-carboxylic acid]	100%	90%	100%	100%	90%	100%	209 to 211 °C	15%	100%	90%
Nc1nc(-c2ccc(C(F)(F)F)cc2F)nc(C(=O)O)c1Cl [Compound 15, 6-Amino-5-chloro-2-(2-fluoro-4-trifluoromethylphenyl)pyrimidine-4-carboxylic acid]	40%	0%	65%	10%	80%	60%	–	65%	10%	50%
Nc1nc(-c2ccc(C(F)(F)F)c(F)c2F)nc(C(=O)O)c1Cl [Compound 16, 6-Amino-5-chloro-2-(2,3-difluoro-4-trifluoromethylphenyl)pyrimidine-4-carboxylic acid]	65%	60%	95%	65%	90%	100%	–	30%	60%	90%
